Bioavailability and Kd data for 2 compounds are collected here from US20260234125A1, “CYCLIC AMINE DERIVATIVE, AND COMPOSITION AND USE THEREOF” (SHANGHAI JINGXIN BIOMEDICAL CO., LTD., priority 2023, published 2026).

Data set [1] is described as follows: Bioavailability determination in cynomolgus monkeys. Type of data set: in vivo. Particulars: cynomolgus monkey, plasma, 1 mg/kg intravenous and 7.5 mg/kg oral gavage, read-out: bioavailability F. Here is the method:
• 1. Experimental purpose: The purpose of this test is to test the bioavailability of the compound in cynomolgus monkeys • 2. Experimental methods: The cynomolgus monkeys were housed with a standard light cycle (12 hours light/12 hours dark), at a room temperature of 18-26° C. and a relative humidity of 40-70%, with free access to water and normal diet. Five days prior to the study, the cynomolgus monkeys were randomly assigned to an intravenous administration group and an oral administration group (n=2/group) on their body weight for the study. The administration volume was calculated according to the body weight of the animals on the day of administration, and the administration volume was 2 mL/kg, the single intravenous administration was performed at a dose of 1 mg/kg, and the solvent was 5% DMSO, 5% Solutol, and 90% Saline. Blood was collected from the forelimb vein or other suitable veins at 0.083 h, 0.25 h, 0.5 h, 1 h, 2 h, 4 h, 6 h, 8 h, 12 h, 24 h, 48 h and 72 h after administration. The administration volume was calculated according to the weight of the animals on the day of administration, and the administration volume was 5 mL/kg, the single oral gavage administration was performed at a dose of 7.5 mg/kg, and the solvent was 1% HEC and 0.25% Tween 80 in Water. […]

Data set [2] has as its target T1, human Apo(a) protein (Homo sapiens, UniProt P08519).
T1 construct: biotin (biotinylated)
The data set can be described thus: BLI affinity of compounds to Apo(a). It counts as binding. To be noted: biotinylated apolipoprotein(a) on SA sensor, compound 100 nM. Here is the method:
• 1. Experimental purpose: The purpose of this test is to test the affinity of the compounds of the present disclosure to Apo(a) • 2. Experimental instruments and reagents: • Molecular interaction analyzer (ForteBio Octet red 96e), • SA sensor (ForteBio), • 96-well plates were purchased from Greine, • 3. Experimental methods:
Prepared two 96-well plates, one as a sample plate and another as a pre-wett plate, curing buffer was added to a 200 μL well of the pre-wet plate, and the SA sensor was pre-wetted for at least ten minutes. All reagents and samples were added to another black sample plate, after the sample addition was completed, the sensor plate and the sample plate were placed into the ForteBio Octet red 96e instrument. The program was set up in sequence for detection. The experimental temperature was set to 30° C. and the acquisition frequency was set at 5.0 Hz. The biosensor was run in 1×PBS, pH7.4, 0.02% Tween-20, 0.1% BSA in the first column for 60 seconds, which was the baseline step. Biotinylated apolipoprotein(a) was diluted to 40 μg/ml with 1×PBS, pH7.4, 0.02% Tween-20, 0.1% BSA, and added to the second column, where it was run for a period of time until the amount of curing on the sensor reaches 2.0 nm. The biosensor was run in 1×PBS, pH7.4, 0.02% Tween-20, 0.1% BSA in the third column for 60 seconds, which was the baseline step. The compound was diluted to 100 nM with 1×PBS, pH7.4, 0.02% Tween-20, 0.1% BSA, and added to the fourth column, where the sensor was run for 60 seconds. The sensor was run in 1×PBS, pH7.4, 0.02% Tween-20, 0.1% BSA in the third column for 120 seconds, during this process, the compound dissociated from the sensor. The affinity constant KD reflects the size of the interaction binding ability. When the concentration of the analyte is at KD, the equilibrium signal Req is half of Rmax.

Molecules are shown by their SMILES.

T1 sequence (P08519 20-2040): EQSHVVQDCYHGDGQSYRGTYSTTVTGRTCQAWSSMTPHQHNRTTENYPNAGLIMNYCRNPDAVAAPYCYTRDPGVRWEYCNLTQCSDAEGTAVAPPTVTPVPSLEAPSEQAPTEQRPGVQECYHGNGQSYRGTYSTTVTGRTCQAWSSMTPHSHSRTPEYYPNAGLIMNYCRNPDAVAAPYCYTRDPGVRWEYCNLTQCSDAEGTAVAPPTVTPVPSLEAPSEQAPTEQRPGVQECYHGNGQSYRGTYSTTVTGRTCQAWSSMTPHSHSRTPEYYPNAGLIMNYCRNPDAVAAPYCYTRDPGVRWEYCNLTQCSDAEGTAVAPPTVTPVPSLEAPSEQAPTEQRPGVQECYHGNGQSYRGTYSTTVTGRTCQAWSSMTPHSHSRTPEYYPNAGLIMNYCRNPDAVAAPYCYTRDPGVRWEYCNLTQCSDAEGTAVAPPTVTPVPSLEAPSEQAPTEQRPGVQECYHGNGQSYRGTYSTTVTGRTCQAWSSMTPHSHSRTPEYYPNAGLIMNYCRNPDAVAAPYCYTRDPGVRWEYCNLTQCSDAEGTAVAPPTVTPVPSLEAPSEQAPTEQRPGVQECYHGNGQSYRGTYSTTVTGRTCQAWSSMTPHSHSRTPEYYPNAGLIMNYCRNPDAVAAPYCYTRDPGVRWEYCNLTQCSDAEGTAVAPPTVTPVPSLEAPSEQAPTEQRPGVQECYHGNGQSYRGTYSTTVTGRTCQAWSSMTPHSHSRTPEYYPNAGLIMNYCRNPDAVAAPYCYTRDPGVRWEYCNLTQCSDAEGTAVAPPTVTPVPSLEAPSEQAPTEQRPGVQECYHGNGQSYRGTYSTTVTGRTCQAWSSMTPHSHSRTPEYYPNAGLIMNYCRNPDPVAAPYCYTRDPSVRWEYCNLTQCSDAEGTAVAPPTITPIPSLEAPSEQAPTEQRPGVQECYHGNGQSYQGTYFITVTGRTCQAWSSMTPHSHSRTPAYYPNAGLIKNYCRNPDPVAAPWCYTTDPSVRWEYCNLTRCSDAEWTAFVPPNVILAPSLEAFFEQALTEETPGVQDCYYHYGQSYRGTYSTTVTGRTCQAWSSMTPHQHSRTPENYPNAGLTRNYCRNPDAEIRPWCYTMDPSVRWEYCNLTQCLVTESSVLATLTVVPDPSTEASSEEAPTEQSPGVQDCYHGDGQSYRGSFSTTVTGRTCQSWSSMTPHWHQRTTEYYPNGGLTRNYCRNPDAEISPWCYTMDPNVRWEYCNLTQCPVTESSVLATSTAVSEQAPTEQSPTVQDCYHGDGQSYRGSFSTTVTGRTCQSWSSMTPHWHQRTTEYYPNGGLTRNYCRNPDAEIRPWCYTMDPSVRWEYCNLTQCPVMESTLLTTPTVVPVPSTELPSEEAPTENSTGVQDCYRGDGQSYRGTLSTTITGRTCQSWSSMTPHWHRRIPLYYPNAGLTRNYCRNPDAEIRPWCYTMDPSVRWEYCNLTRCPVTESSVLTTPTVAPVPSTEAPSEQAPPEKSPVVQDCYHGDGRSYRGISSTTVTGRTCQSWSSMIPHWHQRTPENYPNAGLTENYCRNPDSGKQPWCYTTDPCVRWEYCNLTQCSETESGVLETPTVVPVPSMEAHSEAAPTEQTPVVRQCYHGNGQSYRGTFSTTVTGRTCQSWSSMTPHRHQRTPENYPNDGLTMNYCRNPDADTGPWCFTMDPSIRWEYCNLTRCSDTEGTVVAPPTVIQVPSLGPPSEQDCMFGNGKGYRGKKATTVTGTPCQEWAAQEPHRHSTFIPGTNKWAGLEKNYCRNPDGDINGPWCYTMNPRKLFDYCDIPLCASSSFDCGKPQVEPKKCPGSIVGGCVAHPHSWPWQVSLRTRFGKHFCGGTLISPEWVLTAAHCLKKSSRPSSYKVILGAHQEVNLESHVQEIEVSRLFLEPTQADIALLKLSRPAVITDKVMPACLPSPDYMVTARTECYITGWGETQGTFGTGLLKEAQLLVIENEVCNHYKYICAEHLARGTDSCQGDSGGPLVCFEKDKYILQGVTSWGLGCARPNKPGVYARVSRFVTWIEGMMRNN

Broadly, the bioavailability is the share of a dose that reaches the circulation, judged against a reference dose that is usually intravenous. In the case of `O=C(O)[C@@H](Cc1cccc(CN(Cc2cccc(C[C@H](C(=O)O)[C@H]3CCNC3)c2)Cc2cccc(C[C@H](C(=O)O)[C@H]3CCNC3)c2)c1)[C@H]1CCNC1` [Comparative Example 1, reference compound], the bioavailability in data set [1] was 10.2%.

A word on the Kd: it is the constant that tells how readily two partners part at equilibrium. A low value points to higher affinity. As to `O=C(O)[C@@H](Cc1cccc(CN(Cc2cccc(C[C@H](C(=O)O)[C@H]3CCNC3)c2)C(=O)c2cccc(C[C@H](C(=O)O)[C@H]3CCNC3)c2)c1)[C@H]1CCNC1` [Example 5], the Kd in data set [2] came out at 10.9 nM. Besides, the bioavailability in data set [1] stood at 16.8%.
